# Laboratory results reported in patent publication US8697376B2, “Synthetic protease substrates, assay methods using such substrates and kits for practicing the assay” (Lifesensors, INc., priority 2010, dated 2014).
# Tested on: DUBs immobilized on a Nexterion slide H
# Assay: Microarray-based assay: cleavage and label transfer to immobilized DUBs
# Assay type: biochemical
# Conditions: 35 DUBs arrayed as triplicate spots; FIG. 5
# Method: Since one of the primary uses for the substrates of the invention is localization of active deubiquitylases immobilized in a microarray-type format, i.e. solid phase assay, each of the substrates was tested for its ability to be cleaved and subsequently transfer label to DUBs immobilized on a Nexterion slide H (Schott). Thirty-five (35) DUBs were arrayed as a series of triplicate spots on the slide (see Table 6 for a map of the array) Three identical arrays were constructed on each slide. Several features that were common amongst each array on a given slide and between slides are shown boxed in red and numbered 1-7. […] It should be noted that the enzymes (and antibodies) were coupled 1) at different concentrations and 2) by covalent attachment through surface exposed lysines.
substance,measurement,value
ubiquitin-vinylsulfone,immobilized enzymes labeled (positive features) on the microarray,all of the immobilized proteins were labeled
